Measurements taken from the NIST ThermoML archive (doi:10.1021/je700152c).

Experiment: molar heat capacity at saturation pressure; xn = mol fraction of the nth substance listed

CCCCn1cc[n+](C)c1.Cc1ccc(S(=O)(=O)[O-])cc1 [1-butyl-3-methylimidazolium tosylate] + O
Conditions	molar heat capacity [J/K/mol]
246.29 K, Crystal, x1 = 0.3	181.97
247.04 K, Crystal, x1 = 0.37	195.61
247.05 K, Crystal, x1 = 0.83	303.46
247.42 K, Crystal, x1 = 0.3	183.98
248.02 K, Metastable crystal, x1 = 0.83	322.49
248.32 K, Crystal, x1 = 0.37	197.76
248.55 K, Crystal, x1 = 0.3	185.99
249.21 K, Crystal, x1 = 0.83	306.59
249.59 K, Crystal, x1 = 0.37	199.9
249.68 K, Crystal, x1 = 0.3	188.1
249.95 K, Metastable crystal, x1 = 0.83	325.36
250.8 K, Crystal, x1 = 0.3	190.22
250.86 K, Crystal, x1 = 0.37	202.18
251.37 K, Crystal, x1 = 0.83	309.46
251.87 K, Metastable crystal, x1 = 0.83	328.49
251.91 K, Crystal, x1 = 0.3	192.75
252.13 K, Crystal, x1 = 0.37	204.32
253.03 K, Crystal, x1 = 0.3	194.97
253.39 K, Crystal, x1 = 0.37	206.85
253.52 K, Crystal, x1 = 0.83	312.59
253.79 K, Metastable crystal, x1 = 0.83	331.88
254.13 K, Crystal, x1 = 0.3	197.41
254.64 K, Crystal, x1 = 0.37	209.37
255.24 K, Crystal, x1 = 0.3	200.05
255.66 K, Crystal, x1 = 0.83	315.71
255.7 K, Metastable crystal, x1 = 0.83	335.27
255.89 K, Crystal, x1 = 0.37	212.02
256.33 K, Crystal, x1 = 0.3	202.69
257.13 K, Crystal, x1 = 0.37	214.67
257.42 K, Crystal, x1 = 0.3	205.55
257.6 K, Metastable crystal, x1 = 0.83	339.18
257.79 K, Crystal, x1 = 0.83	318.84
258.37 K, Crystal, x1 = 0.37	217.57
258.51 K, Crystal, x1 = 0.3	208.4
259.5 K, Metastable crystal, x1 = 0.83	342.83
259.59 K, Crystal, x1 = 0.3	211.36
259.6 K, Crystal, x1 = 0.37	220.6
259.92 K, Crystal, x1 = 0.83	322.23
260.66 K, Crystal, x1 = 0.3	214.43
260.83 K, Crystal, x1 = 0.37	223.76
261.38 K, Metastable crystal, x1 = 0.83	346.22
261.73 K, Crystal, x1 = 0.3	217.6
262.04 K, Crystal, x1 = 0.83	325.62
262.05 K, Crystal, x1 = 0.37	227.04
262.8 K, Crystal, x1 = 0.3	221.09
263.25 K, Metastable crystal, x1 = 0.83	349.61
263.26 K, Crystal, x1 = 0.37	230.45
263.85 K, Crystal, x1 = 0.3	224.58
264.15 K, Crystal, x1 = 0.83	329.27
264.46 K, Crystal, x1 = 0.37	233.98
264.9 K, Crystal, x1 = 0.3	228.28
265.12 K, Metastable crystal, x1 = 0.83	353.26
265.66 K, Crystal, x1 = 0.37	238.02
265.94 K, Crystal, x1 = 0.3	232.09
266.24 K, Crystal, x1 = 0.83	333.18
266.85 K, Crystal, x1 = 0.37	241.93
266.97 K, Crystal, x1 = 0.3	236
266.99 K, Metastable crystal, x1 = 0.83	356.38
268 K, Crystal, x1 = 0.3	240.55
268.03 K, Crystal, x1 = 0.37	246.09
268.33 K, Crystal, x1 = 0.83	337.35
268.85 K, Metastable crystal, x1 = 0.83	360.03
269.01 K, Crystal, x1 = 0.3	244.56
269.2 K, Crystal, x1 = 0.37	250.51
270.02 K, Crystal, x1 = 0.3	249.64
270.37 K, Crystal, x1 = 0.37	255.18
270.4 K, Crystal, x1 = 0.83	342.31
270.7 K, Metastable crystal, x1 = 0.83	363.68
271.02 K, Crystal, x1 = 0.3	254.4
271.52 K, Crystal, x1 = 0.37	259.98
272.01 K, Crystal, x1 = 0.3	258.84
272.47 K, Crystal, x1 = 0.83	347
272.55 K, Metastable crystal, x1 = 0.83	367.59
272.66 K, Crystal, x1 = 0.37	265.28
272.99 K, Crystal, x1 = 0.3	264.76
273.8 K, Crystal, x1 = 0.37	270.96
273.97 K, Crystal, x1 = 0.3	269.83
274.39 K, Metastable crystal, x1 = 0.83	371.51
274.51 K, Crystal, x1 = 0.83	353.78
274.92 K, Crystal, x1 = 0.37	276.89
274.93 K, Crystal, x1 = 0.3	276.18
275.88 K, Crystal, x1 = 0.3	281.68
276.03 K, Crystal, x1 = 0.37	283.2
276.22 K, Metastable crystal, x1 = 0.83	375.42
276.53 K, Crystal, x1 = 0.83	361.08
276.82 K, Crystal, x1 = 0.3	288.23
277.13 K, Crystal, x1 = 0.37	289.76
277.75 K, Crystal, x1 = 0.3	295.53
278.04 K, Metastable crystal, x1 = 0.83	379.33
278.22 K, Crystal, x1 = 0.37	296.83
278.52 K, Crystal, x1 = 0.83	369.42
278.68 K, Crystal, x1 = 0.3	301.77
279.29 K, Crystal, x1 = 0.37	304.4
279.59 K, Crystal, x1 = 0.3	309.59
279.86 K, Metastable crystal, x1 = 0.83	383.76
280.35 K, Crystal, x1 = 0.37	312.6
280.48 K, Crystal, x1 = 0.3	318.37
280.49 K, Crystal, x1 = 0.83	379.59
281.36 K, Crystal, x1 = 0.3	326.4
281.39 K, Crystal, x1 = 0.37	321.44
281.67 K, Metastable crystal, x1 = 0.83	388.19
282.23 K, Crystal, x1 = 0.3	334.33
282.42 K, Crystal, x1 = 0.37	331.41
282.42 K, Crystal, x1 = 0.83	391.58
283.09 K, Crystal, x1 = 0.3	343.11
283.44 K, Crystal, x1 = 0.37	340.37
283.47 K, Metastable crystal, x1 = 0.83	393.14
283.93 K, Crystal, x1 = 0.3	351.57
284.33 K, Crystal, x1 = 0.83	406.44
284.44 K, Crystal, x1 = 0.37	351.47
284.76 K, Crystal, x1 = 0.3	360.66
285.26 K, Metastable crystal, x1 = 0.83	399.66
285.41 K, Crystal, x1 = 0.37	362.2
285.58 K, Crystal, x1 = 0.3	372.5
286.18 K, Crystal, x1 = 0.83	423.91
286.37 K, Crystal, x1 = 0.3	390.05
286.38 K, Crystal, x1 = 0.37	375.33
287.02 K, Metastable crystal, x1 = 0.83	407.22
287.16 K, Crystal, x1 = 0.3	386.46
287.33 K, Crystal, x1 = 0.37	388.2
287.96 K, Crystal, x1 = 0.3	383.82
288 K, Crystal, x1 = 0.83	449.2
288.25 K, Crystal, x1 = 0.37	402.21
288.77 K, Crystal, x1 = 0.3	372.08
288.84 K, Metastable crystal, x1 = 0.83	414.26
289.16 K, Crystal, x1 = 0.37	417.23
289.6 K, Crystal, x1 = 0.3	343.95
289.76 K, Crystal, x1 = 0.83	475.27
290.05 K, Crystal, x1 = 0.37	434.26
290.49 K, Crystal, x1 = 0.3	303.04
290.69 K, Metastable crystal, x1 = 0.83	420.52
290.92 K, Crystal, x1 = 0.37	452.18
291.45 K, Crystal, x1 = 0.3	258.1
291.45 K, Crystal, x1 = 0.83	514.89
291.76 K, Crystal, x1 = 0.37	471.62
292.49 K, Crystal, x1 = 0.3	228.39
292.58 K, Crystal, x1 = 0.37	492.69
292.6 K, Metastable crystal, x1 = 0.83	426.25
293.09 K, Crystal, x1 = 0.83	549.83
293.38 K, Crystal, x1 = 0.37	514.4
293.57 K, Crystal, x1 = 0.3	214.64
294.16 K, Crystal, x1 = 0.37	540.9
294.56 K, Metastable crystal, x1 = 0.83	426.77
